The text below walks through data of US20230263822A1, “MODULATION OF FACTOR 11 EXPRESSION” (Ionis Pharmaceuticals, Inc., priority 2008, published 2023).

Details of data set [1]: species or system Sprague-Dawley rats. The settings on record: rat, in vivo, sc, 20 mg/kg. The protocol: The concentration of the full-length oligonucleotide as well as the total oligonucleotide concentration (including the degraded form) was measured. The method used is a modification of previously published methods (Leeds et al., 1996; Geary et al., 1999) which consist of a phenol-chloroform (liquid-liquid) extraction followed by a solid phase extraction. An internal standard (ISIS 355868, a 27-mer 2′-O-methoxyethyl modified phosphorothioate oligonucleotide, […], designated herein as SEQ ID NO: 270) was added prior to extraction. […] The results are presented in Tables 91 and 92, expressed as μg/g liver or kidney tissue. Half-lives were then calculated using WinNonlin software ([…]).

A short description of data set [2]: Tolerability in Sprague-Dawley rats: hematology assays (Example 44). The data set is classed as in vivo. The settings on record: 50 mg/kg s.c. twice per week for 6 weeks, blood.
The subject of a further data set is Factor 11 activity. Put plainly: Factor 11 protein activity, F11 assay based on clotting time (Example 45). The data set is classed as in vivo, cynomolgus monkeys. The note with it: escalating dose regimen. Here is the method: (§1) Groups, each consisting of two male and three female monkeys, were injected subcutaneously with ISIS 416838, ISIS 416850, ISIS 416858, ISIS 416864, or ISIS 417002 in escalating doses. Antisense oligonucleotide was administered to the monkeys at 5 mg/kg three times per a week for week 1; 5 mg/kg twice per week for weeks 2 and 3; 10 mg/kg three times per week for week 4; 10 mg/kg twice per week for weeks 5 and 6; 25 mg/kg three times per week for week 7; and 25 mg/kg twice per week for weeks 8, 9, 10, 11, and 12. One control group, consisting of two male and three female monkeys, was injected subcutaneously with PBS according to the same dosing regimen. An additional experimental group, consisting of two male and three female monkeys, was injected subcutaneously with ISIS 416850 in a chronic, lower dose regimen. Antisense oligonucleotide was administered to the monkeys at 5 mg/kg three times per week for week 1; 5 mg/kg twice per week for week 2 and 3; 10 mg/kg three times per week for week 4; and 10 mg/kg twice per week for weeks 5 to 12. Body weights were measured weekly. Blood samples were collected 14 days and 5 days before the start of treatment and subsequently once per week for Factor 11 protein activity analysis in plasma, fibrinogen measurement, PT and aPTT measurements, bleeding times, and measurement of various hematologic factors. On day 85, the monkeys were euthanized by exsanguination while under deep anesthesia, and organs harvested for further analysis.
Blood samples were collected at various time points and Factor 11 proenzyme was measured using a F11 assay based on clotting time. Clotting times were determined in duplicate with a ST4 semi-automated coagulation instrument (Diagnostica Stago, NJ). Thirty μl of citrated sample plasma diluted 1/20 in HEPES-NaCl buffer with BSA was incubated with 30 μl aPTT reagent (Automated aPTT, Organon Technika, NC) and 30 μl of citrated plasma deficient of Factor 11 (George King Bio-Medical Inc.) at 37° C. for 5 min, followed by the addition of 30 μl of 25 mM CaCl2) to initiate clotting. Results were interpolated on a standard curve of serially diluted citrated control plasma.
Results are presented in Table 118 as percent inhibition of Factor 11 activity, relative to PBS control. The ISIS oligonucleotide, ISIS 416850, given with the chronic dose regimen is distinguished from the other oligonucleotides with an asterisk (*).

Data set [3] can be described thus: Liver function, ALT, AST, bilirubin in cynomolgus monkeys (Example 45). Format: in vivo. The note with it: plasma, escalating dose regimen. Here is the method:
as §1
The ISIS oligonucleotide, ISIS 416850, given with the chronic dose regimen is distinguished from the other oligonucleotides with an asterisk (*).

Data set [4] is described as follows: Kidney function, urine protein to creatinine ratio in cynomolgus monkeys (Example 45). Format: in vivo. Here is the method: as §1
To evaluate the impact of ISIS oligonucleotides on kidney function, urine samples were collected.

Strand notation (5' to 3'): a small letter for the sugar, then the base; units joined by * are phosphorothioate-linked, units joined directly phosphodiester-linked; [ ] holds rarer units or linkages, { } end groups; capitals alone tell only the bases. e = 2'-O-(2-methoxyethyl) (MOE); [5mC] = 5-methylcytosine; d = 2'-deoxy (DNA)

As for “412225 (antisense GCAGCGGACGGCATTGGTGC; 5-10-5 MOE gapmer, further chemistry not given here) [compound 412225]”, the “Half-life of ISIS oligonucleotides in the liver and kidney” value (from here on “Half-life of ISIS oligonucleotides”) in data set [1] is 21 days.

For the substance “416856 (antisense GGCATTGGTGCACAGTTTCT; 5-10-5 gapmer, further chemistry not given here) [compound 416856]”, the “Half-life of ISIS oligonucleotides” value in data set [1] came out at 19 days.

In data set [2], “ISIS 449709: 3-8-3, 4-8-4, 2-10-2, 3-10-3 or 4-10-4 MOE microwalk gapmer (Table 46) (antisense eG*e[5mC]*eA*e[5mC]*dA*dG*dT*dT*dT*d[5mC]*dT*dG*dG*d[5mC]*eA*eG*eG*e[5mC])” gave a Platelets of 631 nL⁻¹, an RBC of 6.9 pL⁻¹, a WBC of 14 nL⁻¹ and a hematocrit of 41%. In data set [2], this substance showed a hemoglobin of 12.6 g/dL, a lymphocytes of 91%, a monocytes of 3% and a neutrophils of 5%.

In the case of “ISIS 449708: 3-8-3, 4-8-4, 2-10-2, 3-10-3 or 4-10-4 MOE microwalk gapmer (Table 46) (antisense eA*e[5mC]*eA*dG*dT*dT*dT*d[5mC]*dT*dG*dG*e[5mC]*eA*eG)”, in data set [2], the Platelets turned out to be 925 nL⁻¹, the RBC amounted to 6.6 pL⁻¹, the WBC turned out to be 22 nL⁻¹ and the hematocrit is given as 40%. In data set [2], the hemoglobin is 12.2 g/dL, the lymphocytes came to 92%, the monocytes came out at 2% and the neutrophils worked out at 6%.

In data set [2], “ISIS 449707: 3-8-3, 4-8-4, 2-10-2, 3-10-3 or 4-10-4 MOE microwalk gapmer (Table 46) (antisense e[5mC]*eA*e[5mC]*eA*dG*dT*dT*dT*d[5mC]*dT*dG*dG*e[5mC]*eA*eG*eG)” had a Platelets of 722 nL⁻¹, an RBC of 6.0 pL⁻¹, a WBC of 20 nL⁻¹ and a hematocrit of 40%. In data set [2], this substance yielded a hemoglobin of 12.0 g/dL, a lymphocytes of 91%, a monocytes of 2% and a neutrophils of 6%.

As for “ISIS 417002: MOE gapmer, nucleobases 1275 to 1318 of SEQ ID NO: 1 (Table 8) (antisense GGTGCACAGTTTCTGGCAGG; MOE gapmer, wing and gap sizes not given here)”, the “percent inhibition of Factor 11 activity, relative to PBS control” value (“percent inhibition … relative to PBS control” for short) in the data set with Factor 11 activity (day 8) amounted to 0%; in the data set with Factor 11 activity (day 15), 4%; in the data set with Factor 11 activity (day 22), 2%; in the data set with Factor 11 activity (day 29), 8%; in the data set on Factor 11 activity (day 36), 8%; with Factor 11 activity (day 43), 9%. The “percent inhibition … relative to PBS control” value turned out to be 13% in the data set on Factor 11 activity (day 50); 24% in the data set on Factor 11 activity (day 57); 26% in the data set with Factor 11 activity (day 64); 30% in the data set with Factor 11 activity (day 71); 22% in the data set on Factor 11 activity (day 78); 23% in the data set with Factor 11 activity (day 85). In addition, the “percent inhibition … relative to PBS control” value in the data set on Factor 11 activity (day −5) and in the data set with Factor 11 activity (day −14) was 0% each time. Further, the ALT was 36 IU/L in data set [3] (day 22); 35 IU/L in data set [3] (day 43); 42 IU/L in data set [3] (day 64); 116 IU/L in data set [3] (day 85); 61 IU/L in data set [3] (day −14). Besides, the AST in data set [3] (day 22) is recorded as 44 IU/L; in data set [3] (day 43) it was 42 IU/L; in data set [3] (day 64), 37 IU/L; in data set [3] (day 85) it was 50 IU/L; in data set [3] (day −14), 114 IU/L. In addition, the Bilirubin in data set [3] (day 22) came to 0.20 mg/dL; in data set [3] (day 43), 0.21 mg/dL; in data set [3] (day 64) it was 0.14 mg/dL; in data set [3] (day 85), 0.12 mg/dL; in data set [3] (day −14), 0.26 mg/dL. Also, the “urine protein to creatinine ratio” value in data set [4] (Day 80) is recorded as 0.18; in data set [4] (Day 84) it was 0.24.

As for “ISIS 449710: 3-8-3, 4-8-4, 2-10-2, 3-10-3 or 4-10-4 MOE microwalk gapmer (Table 46) (antisense e[5mC]*eA*e[5mC]*dA*dG*dT*dT*dT*d[5mC]*dT*dG*dG*d[5mC]*eA*eG*eG)”, in data set [2], the Platelets is 509 nL⁻¹, the RBC came to 6.3 pL⁻¹, the WBC came to 13 nL⁻¹ and the hematocrit stood at 41%. In data set [2], this substance had a hemoglobin of 12.5 g/dL, a lymphocytes of 91%, a monocytes of 2% and a neutrophils of 6%.

“413482 (antisense GGACGGCATTGGTGCACAGT; 5-10-5 MOE gapmer, further chemistry not given here) [compound 413482]”: in data set [1], the “Half-life of ISIS oligonucleotides” value stood at 20 days.

In the case of “412223 (antisense ACAGTTTCTGGCAGGCCTCG; 5-10-5 MOE gapmer, further chemistry not given here) [compound 412223]”, the “Half-life of ISIS oligonucleotides” value in data set [1] came out at 22 days.

Consider “ISIS 449711: 3-8-3, 4-8-4, 2-10-2, 3-10-3 or 4-10-4 MOE microwalk gapmer (Table 46) (antisense eA*e[5mC]*dA*dG*dT*dT*dT*d[5mC]*dT*dG*dG*d[5mC]*eA*eG)”, for which, in data set [2], the Platelets was 919 nL⁻¹, the RBC stood at 6.4 pL⁻¹, the WBC is 13 nL⁻¹ and the hematocrit is 43%. In data set [2], the hemoglobin was determined as 12.6 g/dL, the lymphocytes amounted to 90%, the monocytes amounted to 2% and the neutrophils is 7%.

With “412224 (antisense GCATTGGTGCACAGTTTCTG; 5-10-5 MOE gapmer, further chemistry not given here) [compound 412224]”, in data set [1], the “Half-life of ISIS oligonucleotides” value worked out at 17 days.
